Laboratory results reported in publication PMC6386544 (Infection and Immunity, 2019).
Like-named read-outs stand apart in the source and are kept apart here.

Tests used:
[1] = biological target: T1, ToxA-B3 (Clostridioides difficile, UniProt P16154); conditions: glycan 160 nM to 100 μM
T1 construct: gene tcdA

[2] = biological target: T2, ToxB-GT (Clostridioides difficile, UniProt P18177); conditions: glycan 160 nM to 100 μM
T2 construct: gene tcdB

[3] = biological target: T3, ToxB-B2 (Clostridioides difficile, UniProt P18177); conditions: glycan 160 nM to 100 μM
T3 construct: gene tcdB

[4] = biological target: T4, ToxA-B1 (Clostridioides difficile, UniProt P16154); conditions: glycan 160 nM to 100 μM
T4 construct: gene tcdA

[5] = biological target: T4, ToxA-B1; assay: biochemical
[6] = biological target: T3, ToxB-B2; assay: biochemical
[7] = biological target: T2, ToxB-GT; assay: biochemical
[8] = biological target: T1, ToxA-B3; assay: biochemical
[9] = read-out: Protein binding (KD)^a / ToxA-B3
[10] = read-out: Protein binding (KD)^a / ToxB-B2
[11] = read-out: Protein binding (KD)^a / ToxA-B1

Molecule | Kd [1, 9] | Kd [2] | Kd [3, 10] | Kd [4, 11] | also measured
C[C@@H]1O[C@@H](O[C@H]2[C@H](O[C@H]3[C@H](O)[C@@H](O)C(O)O[C@@H]3CO)O[C@H](CO)[C@H](O)[C@@H]2O[C@H]2O[C@H](CO)[C@H](O)[C@H](O)[C@H]2O)[C@@H](O)[C@H](O)[C@@H]1O (some centres unmarked) [Blood group B] | 14.4 ± 3.2 µM | > 100 µM | 42.9 ± 59.1 µM | 11.4 ± 1.08 µM | 
CC(=O)N[C@H]1[C@H](O[C@H]2[C@@H](O)[C@@H](CO)OC(O)[C@@H]2O)O[C@H](CO)[C@@H](O[C@@H]2O[C@@H](C)[C@@H](O)[C@@H](O)[C@@H]2O)[C@@H]1O[C@@H]1O[C@H](CO)[C@H](O)[C@H](O)[C@H]1O (some centres unmarked) [Lewis A] | 1.65 ± 0.62 µM | > 100 µM | 0.579 ± 0.037 µM | 3.38 ± 0.95 µM | 
CC(=O)N[C@H]1[C@H](O[C@H]2[C@@H](O)[C@@H](CO)OC(O)[C@@H]2O)O[C@H](CO)[C@@H](O[C@@H]2O[C@@H](C)[C@@H](O)[C@@H](O)[C@@H]2O)[C@@H]1O[C@@H]1O[C@H](CO)[C@H](O)[C@H](O)[C@H]1O[C@@H]1O[C@@H](C)[C@@H](O)[C@@H](O)[C@@H]1O (some centres unmarked) [Lewis B] |  | > 100 µM | 0.395 ± 0.029 µM |  | 
CC(=O)N[C@H]1[C@H](O[C@H]2[C@@H](O)[C@@H](CO)OC(O)[C@@H]2O)O[C@H](CO)[C@@H](O[C@@H]2O[C@H](CO)[C@H](O)[C@H](O)[C@H]2O)[C@@H]1O[C@@H]1O[C@@H](C)[C@@H](O)[C@@H](O)[C@@H]1O (some centres unmarked) [Lewis X] | 16.5 ± 2.8 µM | > 100 µM | 0.501 ± 0.308 µM | 18.9 ± 5.58 µM | 
CO[C@H]1O[C@H](CO)[C@@H](O)[C@H](O)[C@@H]1O [α-Methyl-mannose] |  |  |  |  | Kd [5]: > 100 µM; Kd [6]: 0.315 ± 0.103 µM; Kd [7]: > 100 µM; Kd [8]: > 100 µM
Blood group A | 0.0614 ± 0.0296 µM | > 100 µM | 0.0291 ± 0.0075 µM | 1.53 ± 0.6 µM | 
Blood group H |  | > 100 µM | 0.428 ± 0.008 µM | 1.22 ± 0.49 µM | Kd [1]: > 100 µM
Lewis Y | 55.5 ± 28.8 µM | > 100 µM | 8 ± 0.74 µM | 12.7 ± 2.47 µM | 
Man5 |  | > 100 µM |  |  | Kd [1]: > 100 µM; Kd [3]: > 100 µM; Kd [4]: > 100 µM
Sialyl-Lewis A | 72.1 ± 31.8 µM | > 100 µM | 2.39 ± 0.68 µM | 71.8 ± 27.1 µM | 
